Results on five compounds are retold here after ChEMBL document CHEMBL4627384, “l-Thyroxin and the Nonclassical Thyroid Hormone TETRAC Are Potent Activators of PPARγ” (J Med Chem, 2020).

The EC50 is the concentration at which the effect is half-maximal. A word on the Kd: it is the concentration at which binding is half-saturated. As a reminder, the half-life is how long it takes for the measured level to halve. Read a high half-life as slow loss. What is called Cmax is the peak of the concentration-time curve. As a reminder, the Tmax is the time at which the peak concentration occurs.

Calls of active or inactive are those of the source. No cut-off for these calls is given here.

The subject of one data set is HEK-293T. The data set can be described thus: Activation of renilla luciferase expressed in HEK293T cells at 3 uM incubated for 14 to 16 hrs by reporter gene assay. The class given is cell-based. To be noted: Renilla reniformis. For orientation: In a reporter assay the amount or activity of a reporter protein is the signal.
Data set [1] can be described thus: Drug level in euthyroid human serum by RIA. The class given is ADME, cell-free. Conditions: read-out: Drug uptake.
The target in data set [2] is T1, Retinoic acid receptor RXR-alpha (Homo sapiens, UniProt P19793).
T1 sequence (P19793 whole entry): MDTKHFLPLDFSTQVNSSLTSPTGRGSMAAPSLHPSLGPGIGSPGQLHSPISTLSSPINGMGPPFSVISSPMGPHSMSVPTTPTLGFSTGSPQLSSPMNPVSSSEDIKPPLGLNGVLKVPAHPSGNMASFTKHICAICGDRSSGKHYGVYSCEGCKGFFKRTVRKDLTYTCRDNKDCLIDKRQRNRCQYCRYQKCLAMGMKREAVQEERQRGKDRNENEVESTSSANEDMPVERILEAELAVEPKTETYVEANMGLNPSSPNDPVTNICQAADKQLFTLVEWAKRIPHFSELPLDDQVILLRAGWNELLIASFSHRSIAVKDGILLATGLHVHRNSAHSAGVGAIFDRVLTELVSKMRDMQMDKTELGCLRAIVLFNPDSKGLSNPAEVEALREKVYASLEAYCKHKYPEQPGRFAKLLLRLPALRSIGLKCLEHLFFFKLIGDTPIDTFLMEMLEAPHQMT
The data set can be described thus: Agonist activity at recombinant human pFA-CMV fused RXRalpha LBD expressed in HEK293T cells transfected with pFR-luciferase plasmid and pRL-SV40 plasmid incubated for 14 to 16 hrs by dual glo luciferase reporter gene assay. The class given is cell-based, HEK-293T. To be noted: hek-293t.

Data set [3] has as its target T2, Peroxisome proliferator-activated receptor gamma (Homo sapiens, UniProt P37231).
T2 sequence (P37231 whole entry): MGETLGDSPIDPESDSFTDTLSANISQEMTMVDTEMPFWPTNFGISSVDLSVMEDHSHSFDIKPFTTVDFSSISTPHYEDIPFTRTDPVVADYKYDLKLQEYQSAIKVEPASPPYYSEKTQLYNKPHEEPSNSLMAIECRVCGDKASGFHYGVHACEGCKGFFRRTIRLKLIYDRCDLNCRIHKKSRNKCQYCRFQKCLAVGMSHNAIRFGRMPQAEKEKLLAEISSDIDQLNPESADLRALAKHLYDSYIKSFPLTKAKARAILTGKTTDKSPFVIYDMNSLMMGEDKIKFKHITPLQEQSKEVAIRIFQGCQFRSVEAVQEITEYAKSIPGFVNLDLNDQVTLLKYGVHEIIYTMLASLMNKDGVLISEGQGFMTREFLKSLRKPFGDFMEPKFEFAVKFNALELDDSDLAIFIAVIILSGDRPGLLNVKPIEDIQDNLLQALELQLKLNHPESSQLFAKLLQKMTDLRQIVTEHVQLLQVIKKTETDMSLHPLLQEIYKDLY
The data set can be described thus: Binding affinity to recombinant PPARgamma LBD (unknown origin) by isothermal titration calorimetry. A general note: In ITC the heat of successive injections is recorded.

Data set [4] can be described thus: Drug level in human serum. The class given is ADME, cell-free. Conditions: read-out: Drug uptake.
Data set [5] concerns the target T2, Peroxisome proliferator-activated receptor gamma. Kind of data set: Agonist activity at recombinant human pFA-CMV fused PPARgamma expressed in HEK293T cells transfected with pFR-luciferase plasmid and pRL-SV40 plasmid incubated for 14 to 16 hrs by dual glo luciferase reporter gene assay. It counts as cell-based, HEK-293T.
Data set [6] is described as follows: Plasma concentration in RjOrl:Swiss CD-1 mouse at 10 mg/kg, po administered as single dose measured after 4 to 24 hrs by LC-MS analysis. Conditions: in vivo. It counts as ADME, organism-based.
Data set [7] in a line: Half life in RjOrl:Swiss CD-1 mouse at 10 mg/kg, po administered as single dose measured after 1 to 24 hrs by LC-MS analysis. The class given is ADME, organism-based. To be noted: in vivo.
Data set [8] is described as follows: Cmax in RjOrl:Swiss CD-1 mouse at 10 mg/kg, po administered as single dose measured after 1 to 24 hrs by LC-MS analysis. Conditions: in vivo. It counts as ADME, organism-based. More on the design: dose 10 mg/kg, route oral.
Data set [9] in a line: Tmax in RjOrl:Swiss CD-1 mouse at 10 mg/kg, po administered as single dose measured after 1 to 24 hrs by LC-MS analysis. The class given is ADME, organism-based. Conditions: in vivo.
Data set [10] in a line: Toxicity in RjOrl:Swiss CD-1 mouse assessed as induction of adverse effect at 10 mg/kg, po administered as single dose. The class given is organism-based. To be noted: in vivo.

In the case of `O=C(O)Cc1cc(I)c(Oc2ccc(O)c(I)c2)c(I)c1` [TIRATRICOL], the result in the data set on HEK-293T was inactive. The concentration in data set [1] was 0.24 nM.

Turning to `N[C@@H](Cc1cc(I)c(Oc2ccc(O)c(I)c2)c(I)c1)C(=O)O` [LIOTHYRONINE], the 50% effective concentration (EC50) result was “Not Active” in data set [2] and 5.8 µM in data set [5]. The Kd in data set [3] came out at 710 nM. In addition, the concentration in [4] lay within 1.3 to 2.1 nM.

In [6], `O=C(O)Cc1cc(Br)c(Oc2cc(I)c(O)c(I)c2)c(I)c1` had a concentration of 40 nM. This compound had a half-life in [7] of 1160 min. In [8], this compound showed a Cmax of 3180 ng/mL. For the same compound, the Tmax in data set [9] is 1 h. Further, the Activity result in data set [10] was “Non-Toxic”.

On to `N[C@@H](Cc1cc(Br)c(Oc2cc(I)c(O)c(I)c2)c(I)c1)C(=O)O`, for which the concentration in data set [6] amounted to 40 nM. Besides, the half-life in data set [7] was 522 min. The Cmax in data set [8] was determined as 4480 ng/mL. For the same compound, in data set [9], the time to peak (Tmax) is 2 h. For the same compound, in data set [5], the EC50 stood at 12.9 µM. The Activity entry in [10] is “Non-Toxic”.

As to `N[C@@H](Cc1ccc(Oc2cc(I)c(O)c(I)c2)c(I)c1)C(=O)O` [REVERSE TRIIODOTHYRONINE], the EC50 result is “Not Active” in data set [2] and 3.8 µM in [5]. Also, in data set [3], the Kd came out at 630 nM.
